Source: patent US12048684B2, “Arctigenin liquid nano-preparation and preparation method thereof” (Wuhan Academy of Agricultural Sciences, priority 2022, dated 2024)

Assay: Solubility in pure water at room temperature
Type: physicochemical

solubility (water solubility of arctigenin): < 0.05%
SMILES: COc1cc(C[C@H]2C(=O)OC[C@@H]2Cc2ccc(OC)c(OC)c2)ccc1O [arctigenin raw material, arctigenin]
